The results in this text go back to ChEMBL document CHEMBL5052831, “Serpin inhibitors for the treatment of prion and prion-like diseases” (2021).

This assay has as its system ScGT1. The assay can be described thus: Inhibition of SERPINA3N in mouse GT1 cells chronically infected with RML prion (ScGT1) assessed as reduction of PrPSc levels measured by western blot analysis. Format: cell-based. Also noted: concentration or dose not given beside the values. A general note: A western blot detects proteins with antibodies after separation by electrophoresis.
Consider `O=C(NC1CCCOC1)c1cnn(-c2ccc(F)cc2)c1` (configuration not stated), for which the Activity is 50%.

On to `Cc1ccc(-n2ncc(C(=O)C3CCN(C(=O)c4scnc4C)CC3)c2N)cc1`, for which the Activity came to 50%.

On to `Cc1n[nH]c(C)c1CNC(=O)c1cnn(-c2ccc(F)cc2)c1`, for which the Activity is 50%. In the case of `Nc1c(C(=O)c2c[nH]c3ccccc23)cnn1-c1ccccc1` it was 50%. In the case of `CC(=O)N1CCC(C(=O)c2cnn(-c3cccc(F)c3)c2N)CC1` it was 50%; in that of `Nc1c(C(=O)C2CCN(C(=O)c3ccno3)CC2)cnn1-c1ccccc1`, 50%. `Cc1ccc(-n2ncc(C(=O)C3CCN(C(=O)C4CCC4)C3)c2N)cc1` (configuration not stated): the Activity stood at 50%.
